# Data from patent US4359458A, “O-β. -D (and O-α.. -D) Multigalactopyranosyl, xylopyranosyl and glucopyranosyl sulfate salts” (American Cyanamid Company, priority 1981, dated 1982).
# Where a name gives a salt, the structure may show the parent alone. Read-outs that look alike come from different tables or passages of the source.
# Assays:
# [1] = system: complement system; settings: Br. J. Exp. Pathol. 33: 327 (1952); cited from earlier work
# [2] = system: hereditary angioneurotic edema; settings: literature reports; cited from earlier work
# [3] = system: late components of human complement (C3-C9); assay: Test Code 035 (C3-C9 inhibitor); type: biochemical; settings: serial dilution assay, twofold dilutions; higher well number indicates higher activity; N = Negative
# Description: (§1) An active inhibitor protects C2 from C1 and C4; (ii) Test Code 035 (C3-C9 inhibitor)--This test determines the ability of the late components of human complement (C3-C9) to lyse EAC 142 in the presence of appropriate dilutions of the test compound. An active inhibitor protects EAC 142 from lysis by human C3-C9; (iii) Test Code 036 (C-Shunt inhibitor)--In this test human erythrocytes rendered fragile are lysed in autologous serum via the shunt pathway activated by cobra venom factor in the presence of appropriate dilutions of the test compound. Inhibition of the shunt pathway results in failure of lysis; (iv) Cap 50 Test--Here, appropriate amounts of the test compound are added to a pool of guinea pig serum in vitro, after which the undiluted serum capillary tube assay of U.S. Pat. No. 3,876,376 is run. The concentration of compound inhibiting 50% is reported; and (v) Guinea Pig Intraperitoneal Test (GPIP)--Guinea pigs weighing about 300 g are dosed intraperitoneally (i.p.) with 200 mg/kg of the test compound dissolved in saline and adjusted to pH 7-8. Approximately 0.4 ml blood samples, taken by orbital sinus puncture 30 minutes and one hour after injections, are collected directly into centrifuge tubes; 5 ml blood samples, taken by decapitation 2 hours after injection are collected directly into beakers. The samples are allowed to clot, centrifuged, and the resultant sera are assayed for complement activity using the capillary complement assay. Percent inhibition is calculated by comparison with simultaneous controls. The results of the GPIP appear in Table I together with results of test code 026, 035, 036 and Cap 50.
# [4] = target: activated human C1 (Homo sapiens, UniProt P09871); assay: Test Code 026 (C1 inhibitor); type: biochemical; settings: serial dilution assay, twofold dilutions; higher well number indicates higher activity
# Description: as §1
# [5] = system: shunt pathway activated by cobra venom factor; assay: Test Code 036 (C-Shunt inhibitor); type: cell-based, human; settings: serial dilution assay, twofold dilutions; higher well number indicates higher activity; N = Negative
# Description: as §1
# [6] = system: total hemolytic complement activity; settings: both in vitro and in vivo; judged by reduction in total hemolytic complement activity; cited from earlier work
# [7] = system: complement activity; assay: Guinea Pig Intraperitoneal Test (GPIP); type: in vivo; settings: Cavia porcellus, ip, 200 mg/kg i.p.
# Description: as §1
Compound,C-Late 035 Wells [3],Cl 026 Wells [4],C-Shunt Inhibition 036 Wells [5],other results
"Nc1ccc2cc(S(=O)(=O)O)cc(O)c2c1N=Nc1ccc(NC(=O)Nc2ccc(N=Nc3c(N)ccc4cc(S(=O)(=O)O)cc(O)c34)c(S(=O)(=O)O)c2)cc1S(=O)(=O)O [chlorazol fast pink, 3,3'-ureylenebis [6-(2-amino-8-hydroxy-6-sulfo-1-naphthylazo)benzenesulfonic acid], tetrasodium salt]",–,–,–,anti-complementary effect [1]: anti-complementary effect
heparin,–,–,–,anti-complementary effect [1]: anti-complementary effect
NCCCCCC(=O)O [epsilon-aminocaproic acid],–,–,–,treatment of hereditary angioneurotic edema [2]: used with success
"O=S(=O)(O)OC[C@H]1O[C@@H](OC[C@H]2O[C@H](O[C@H]3O[C@H](CO[C@@H]4O[C@H](COS(=O)(=O)O)[C@@H](O[C@H]5O[C@H](COS(=O)(=O)O)[C@@H](O[C@H]6O[C@H](COS(=O)(=O)O)[C@@H](OS(=O)(=O)O)[C@H](OS(=O)(=O)O)[C@H]6OS(=O)(=O)O)[C@H](OS(=O)(=O)O)[C@H]5OS(=O)(=O)O)[C@H](OS(=O)(=O)O)[C@H]4OS(=O)(=O)O)[C@@H](OS(=O)(=O)O)[C@H](OS(=O)(=O)O)[C@H]3OS(=O)(=O)O)[C@H](OS(=O)(=O)O)[C@@H](OS(=O)(=O)O)[C@@H]2OS(=O)(=O)O)[C@H](OS(=O)(=O)O)[C@@H](OS(=O)(=O)O)[C@@H]1O[C@H]1O[C@H](COS(=O)(=O)O)[C@@H](O[C@H]2O[C@H](COS(=O)(=O)O)[C@@H](OS(=O)(=O)O)[C@H](OS(=O)(=O)O)[C@H]2OS(=O)(=O)O)[C@H](OS(=O)(=O)O)[C@H]1OS(=O)(=O)O [drawing 17, Glc 1α,4 glc 1α,4 glc 1β,6 glc 1α,1α' glc 1β,6 glc 1α,4 glc 1α,4 glc, hexacosakis (H-sulfate), hexacosasalt with trimethylamine]",1 Wells,9 Wells,6 Wells,–
"O=S(=O)(O)OC[C@H]1O[C@@H](OC[C@H]2O[C@H](O[C@H]3O[C@H](CO[C@@H]4O[C@H](COS(=O)(=O)O)[C@@H](O[C@H]5O[C@H](COS(=O)(=O)O)[C@@H](OS(=O)(=O)O)[C@H](OS(=O)(=O)O)[C@H]5OS(=O)(=O)O)[C@H](OS(=O)(=O)O)[C@H]4OS(=O)(=O)O)[C@@H](OS(=O)(=O)O)[C@H](OS(=O)(=O)O)[C@H]3OS(=O)(=O)O)[C@H](OS(=O)(=O)O)[C@@H](OS(=O)(=O)O)[C@@H]2OS(=O)(=O)O)[C@H](OS(=O)(=O)O)[C@@H](OS(=O)(=O)O)[C@@H]1O[C@H]1O[C@H](COS(=O)(=O)O)[C@@H](OS(=O)(=O)O)[C@H](OS(=O)(=O)O)[C@H]1OS(=O)(=O)O [drawing 16, Glc 1α,4 glc 1β,6 glc 1α,1α' glc 1β,6 glc 1α,4 glc, eicosakis (H-sulfate), eicosasodium salt]",N,10 Wells,6 Wells,–
"O=S(=O)(O)OC[C@H]1O[C@@H](OC[C@H]2O[C@H](O[C@H]3O[C@H](COS(=O)(=O)O)[C@@H](OS(=O)(=O)O)[C@H](OS(=O)(=O)O)[C@H]3OS(=O)(=O)O)[C@H](OS(=O)(=O)O)[C@@H](OS(=O)(=O)O)[C@@H]2OS(=O)(=O)O)[C@H](OS(=O)(=O)O)[C@@H](OS(=O)(=O)O)[C@@H]1O[C@H]1O[C@H](COS(=O)(=O)O)[C@@H](O[C@H]2O[C@H](COS(=O)(=O)O)[C@@H](O[C@H]3O[C@H](COS(=O)(=O)O)[C@@H](O[C@H]4O[C@H](COS(=O)(=O)O)[C@@H](O[C@H]5O[C@H](COS(=O)(=O)O)[C@@H](O[C@H]6O[C@H](COS(=O)(=O)O)[C@@H](OS(=O)(=O)O)[C@H](OS(=O)(=O)O)[C@H]6OS(=O)(=O)O)[C@H](OS(=O)(=O)O)[C@H]5OS(=O)(=O)O)[C@H](OS(=O)(=O)O)[C@H]4OS(=O)(=O)O)[C@H](OS(=O)(=O)O)[C@H]3OS(=O)(=O)O)[C@H](OS(=O)(=O)O)[C@H]2OS(=O)(=O)O)[C@H](OS(=O)(=O)O)[C@H]1OS(=O)(=O)O [drawing 25, Glc 1α,4 (glc 1α,4)5 glc 1β,6 glc 1α,1α'glc, nonacosakis (H-sulfate), nonacosasalt with trimethylamine]",N,9 Wells,5 Wells,–
"O=S(=O)(O)OC[C@H]1O[C@@H](OC[C@H]2O[C@H](O[C@H]3O[C@H](CO[C@@H]4O[C@H](COS(=O)(=O)O)[C@@H](O[C@H]5O[C@H](COS(=O)(=O)O)[C@@H](O[C@H]6O[C@H](COS(=O)(=O)O)[C@@H](OS(=O)(=O)O)[C@H](OS(=O)(=O)O)[C@H]6OS(=O)(=O)O)[C@H](OS(=O)(=O)O)[C@H]5OS(=O)(=O)O)[C@H](OS(=O)(=O)O)[C@H]4OS(=O)(=O)O)[C@@H](OS(=O)(=O)O)[C@H](OS(=O)(=O)O)[C@H]3OS(=O)(=O)O)[C@H](OS(=O)(=O)O)[C@@H](OS(=O)(=O)O)[C@@H]2OS(=O)(=O)O)[C@H](OS(=O)(=O)O)[C@@H](OS(=O)(=O)O)[C@@H]1O[C@H]1O[C@H](COS(=O)(=O)O)[C@@H](O[C@H]2O[C@H](COS(=O)(=O)O)[C@@H](OS(=O)(=O)O)[C@H](OS(=O)(=O)O)[C@H]2OS(=O)(=O)O)[C@H](OS(=O)(=O)O)[C@H]1OS(=O)(=O)O [drawing 19, Glc 1α,4 glc 1α,4 glc 1β,6 glc 1α,1α' glc 1β,6 glc 1α,4 glc 1α,4 glc, hexacosakis (H-sulfate), hexacosasodium salt]",1 Wells,9 Wells,6 Wells,–
NC[C@H]1CC[C@H](C(=O)O)CC1 [tranexamic acid],–,–,–,treatment of hereditary angioneurotic edema [2]: used with success
pentosanpolysulfoester,–,–,–,anticomplementary activity on human serum [6]: anticomplementary activity
"O=S(=O)(O)O[C@@H]1[C@@H](OS(=O)(=O)O)[C@@H](O[C@H]2O[C@H](CO[C@@H]3OC[C@@H](OS(=O)(=O)O)[C@H](OS(=O)(=O)O)[C@H]3OS(=O)(=O)O)[C@@H](OS(=O)(=O)O)[C@H](OS(=O)(=O)O)[C@H]2OS(=O)(=O)O)O[C@H](CO[C@@H]2OC[C@@H](OS(=O)(=O)O)[C@H](OS(=O)(=O)O)[C@H]2OS(=O)(=O)O)[C@H]1OS(=O)(=O)O [drawing 14, Xyl 1β,6 glc 1α,1α' glc 1β,6 xyl, dodecakis (H-sulfate), dodecasodium salt]",–,11 Wells,4 Wells,"inhibition at 200 mg/kg ([7]; 0.5 h, serum 30 minutes after injection, read-out: In vivo activity (Guinea Pigs) % Inhibition Intraperitoneal, 30 minutes): 57%; inhibition at 200 mg/kg ([7]; 1 h, serum 60 minutes after injection, read-out: In vivo activity (Guinea Pigs) % Inhibition Intraperitoneal, 60 minutes): 69%; inhibition at 200 mg/kg ([7]; 2 h, serum 120 minutes after injection, read-out: In vivo activity (Guinea Pigs) % Inhibition Intraperitoneal, 120 minutes): 78%"
